Data from patent publication US20220267380A1, “Glycopeptides Increasing Lipid Synthesis” (TFCHEM, priority 2019, published 2022).

System: normal human dermal fibroblasts (NHDF)
Assay: Gene expression in NHDF, full transcriptome analysis with Affymetrix U219 microarray
Format: cell-based
Details: NHDF, 10 mg/ml, 24 h
Description: In the present study, the transcriptional effects (modulation of gene expression) of compounds 1, 2, 3 and 4 were evaluated on normal human dermal fibroblasts (NHDF) under basal conditions.
More specifically, the comparative analysis of the different transcriptomic profiles was performed using an Affymetrix GeneAtlas platform and the human “full transcriptome” U219 chip, which includes 36,000 transcripts and variants.
Fibroblasts were seeded in 24-well plates and cultured in culture medium for 24 hours. The medium was then replaced by assay medium and cells were incubated for further 24 hours. The medium was replaced by assay medium containing or not (control) the test compounds at different concentrations and the cells were preincubated for 24 hours. All experimental conditions were performed in triplicate. At the end of incubation, the culture supernatants were removed and the cells were washed in a phosphate buffered saline (PBS) solution and immediately frozen at −80° C.
Before RNA extraction, the replicates were pooled. Total RNA was extracted from each sample using TriPure Isolation Reagent® according to the supplier's instructions. The amount and quality of total RNA were evaluated for all samples using capillary electrophoresis (Bioanalyzer 2100, Agilent technologies). From each RNA, a labeled and amplified anti-sens RNA (aRNA) was obtained using GeneChip 3′IVT PLUS Kit (Affymetrix). For each labeled and amplified aRNA sample the profiles were evaluated before and after fragmentation using capillary electrophoresis (Bioanalyzer 2100, Agilent technologies). Hybridization of fragmented aRNA onto Affymetrix® U219 chip (36,000 transcripts and variants) was performed in the GeneAtlas™ fluidics Affymetrix® hybridization station for 20 hours at 45° C. U219 chip was analyzed using the GeneAtlas™ Imaging station (Affymetrix®—resolution 2 μm) to generate fluorescence intensity data.
Expression Console and Quality controls: data were normalized with the Expression Console (Affymetrix®) software using RMA algorithm. Then a quality control of the labeling and the hybridization was performed. Hybridization and labeling steps successfully passed the quality controls for these experiments.
Data reduction, Excel file description: once normalized with Expression Console, data were transferred into a Microsoft Excel® file in order to go further into data reduction.
Calculation and tools were added in order to rank and sort data, and finally to support data interpretation. Detection thresholds in terms of fold change were defined and applied on normalized data.
Results are considered and presented or commented per gene (and not probe). A probe set is a collection of probes designed to interrogate a given sequence of a gene. For data interpretation, the most important relative expression value obtained with one probe is considered to be representative of the corresponding gene. The file contains the following data: • Relative expression (RE) for each sample, • Fold change calculation, • Gene information.

[1] = relative expression adjusted to detection limit (<20)

With N[C@@H](CCCCNCC(F)(F)[C@]1(O)O[C@H](CO)[C@H](O)[C@H](O)[C@H]1O)C(=O)O [Compound 3] the “Fold change, FADS1” value (vs control, Affymetrix probe set 11752670_a_at) was 3.55, the “Fold change, TPP1” value (vs control, Affymetrix probe set 11753248_a_at) was 2.05 and the “Fold change, GBA///GBAP1” value (vs control, Affymetrix probe set 11753439_a_at) was 2.35. For the same compound, the “Fold change, GBA” value (vs control, Affymetrix probe set 11753440_x_at) was 2.30, the “Fold change, GBA///GBAP1” value (vs control, Affymetrix probe set 11754819_x_at) was 2.08 and the “Fold change, LPCAT3” value (vs control, Affymetrix probe set 11755123_x_at) was 2.13. For the same compound, the “Fold change, FADS1” value (vs control, Affymetrix probe set 11755251_x_at) was 3.75, the “Fold change, LPCAT3” value (vs control, Affymetrix probe set 11757008_a_at) was 2.39 and the “Fold change, TPP1” value (vs control, Affymetrix probe set 11757469_s_at) was 2.14. For the same compound, the “Fold change, HSD17B14” value (vs control, Affymetrix probe set 11757575_x_at) was 2.92, the “Fold change, TM7SF2” value (vs control, Affymetrix probe set 11762755_x_at) was 2.10 and the “REadj2, ACOT1///ACOT2” value [1] was 462.96. For the same compound, the “REadj2, APOD” value [1] was 154.78, the “REadj2, DHCR7” value [1] was 1097.58 and the “REadj2, FADS2” value [1] was 263.98. For the same compound, the “REadj2, GBAP1” value [1] was 186.37, the “REadj2, HACD1” value [1] was 674.65 and the “REadj2, HMGCS1” value [1] was 1170.64. The “REadj2, LRP8” value [1] was 125.76, the “REadj2, MVD” value [1] was 534.91 and the “REadj2, NCOR1” value [1] was 68.44. For the same compound, the “REadj2, NEU1” value [1] was 722.33, the “REadj2, NPC1” value [1] was 154.34 and the “REadj2, PHLDB2” value [1] was 66.17. For the same compound, the “REadj2, PHYH” value [1] was 813.79, the “REadj2, PLA2G15” value [1] was 82.36 and the “REadj2, PLA2G16” value [1] was 222.24. For the same compound, the “REadj2, PRKAB2” value [1] was 21.07, the “REadj2, PTGDS” value [1] was 1080.74 and the “REadj2, SOAT1” value [1] was 393.50. The “REadj2, SPHK1” value [1] was 195.74, the “REadj2, SREBF1” value [1] was 312.15 and the “REadj2, TXNRD1” value [1] was 1483.80. For the same compound, the “REadj2, VAC14” value [1] was 105.84, the “REadj2, SCD” value (relative expression adjusted to detection limit (<20), Affymetrix probe set 11715561_s_at) was 634.95 and the “REadj2, SCD” value (relative expression adjusted to detection limit (<20), Affymetrix probe set 11715562_x_at) was 722.36. The “REadj2, SCD” value (relative expression adjusted to detection limit (<20), Affymetrix probe set 11715563_s_at) was 558.17, the “REadj2, G6PD” value (relative expression adjusted to detection limit (<20), Affymetrix probe set 11716292_a_at) was 348.08 and the “REadj2, G6PD” value (relative expression adjusted to detection limit (<20), Affymetrix probe set 11716293_x_at) was 239.53. For the same compound, the “REadj2, INSIG1” value (relative expression adjusted to detection limit (<20), Affymetrix probe set 11716338_a_at) was 1101.68, the “REadj2, INSIG1” value (relative expression adjusted to detection limit (<20), Affymetrix probe set 11716339_a_at) was 1249.89 and the “REadj2, PPT1” value (relative expression adjusted to detection limit (<20), Affymetrix probe set 11716533_a_at) was 249.91. For the same compound, the “REadj2, EBP” value (relative expression adjusted to detection limit (<20), Affymetrix probe set 11717859_a_at) was 1025.83, the “REadj2, HSD17B14” value (relative expression adjusted to detection limit (<20), Affymetrix probe set 11720588_a_at) was 154.64 and the “REadj2, SERINC2” value (relative expression adjusted to detection limit (<20), Affymetrix probe set 11721046_a_at) was 462.86. For the same compound, the “REadj2, ME1” value (relative expression adjusted to detection limit (<20), Affymetrix probe set 11726265_at) was 1130.68, the “REadj2, CHKA” value (relative expression adjusted to detection limit (<20), Affymetrix probe set 11736285_a_at) was 137.49 and the “REadj2, CHKA” value (relative expression adjusted to detection limit (<20), Affymetrix probe set 11736286_a_at) was 138.86. The “REadj2, ASAH1” value (relative expression adjusted to detection limit (<20), Affymetrix probe set 11740582_a_at) was 1292.95, the “REadj2, PPT1” value (relative expression adjusted to detection limit (<20), Affymetrix probe set 11742107_a_at) was 289.70 and the “REadj2, ASAH1” value (relative expression adjusted to detection limit (<20), Affymetrix probe set 11743547_a_at) was 1038.22. The “REadj2, PCYT2” value (relative expression adjusted to detection limit (<20), Affymetrix probe set 11744044_s_at) was 239.50, the “REadj2, FADS1” value (relative expression adjusted to detection limit (<20), Affymetrix probe set 11745459_a_at) was 1891.83 and the “REadj2, LDLR” value (relative expression adjusted to detection limit (<20), Affymetrix probe set 11746974_a_at) was 357.86. For the same compound, the “REadj2, PCYT2” value (relative expression adjusted to detection limit (<20), Affymetrix probe set 11747322_s_at) was 216.32, the “REadj2, LDLR” value (relative expression adjusted to detection limit (<20), Affymetrix probe set 11748045_x_at) was 380.34 and the “REadj2, SERINC2” value (relative expression adjusted to detection limit (<20), Affymetrix probe set 11748053_x_at) was 342.33. The “REadj2, TM7SF2” value (relative expression adjusted to detection limit (<20), Affymetrix probe set 11748279_s_at) was 91.54, the “REadj2, EBP” value (relative expression adjusted to detection limit (<20), Affymetrix probe set 11749332_x_at) was 907.86 and the “REadj2, ABHD4” value (relative expression adjusted to detection limit (<20), Affymetrix probe set 11749343_a_at) was 66.31. The “REadj2, ABHD4” value (relative expression adjusted to detection limit (<20), Affymetrix probe set 11749376_a_at) was 69.48, the “REadj2, ME1” value (relative expression adjusted to detection limit (<20), Affymetrix probe set 11750913_a_at) was 861.69 and the “REadj2, GBA” value (relative expression adjusted to detection limit (<20), Affymetrix probe set 11750975_x_at) was 250.68. The “REadj2, GBA” value (relative expression adjusted to detection limit (<20), Affymetrix probe set 11751086_x_at) was 255.53, the “REadj2, DHCR24” value (relative expression adjusted to detection limit (<20), Affymetrix probe set 11751337_a_at) was 191.39 and the “REadj2, DHCR24” value (relative expression adjusted to detection limit (<20), Affymetrix probe set 11751338_x_at) was 364.97. The “REadj2, G6PD” value (relative expression adjusted to detection limit (<20), Affymetrix probe set 11752486_a_at) was 224.35, the “REadj2, FADS1” value (relative expression adjusted to detection limit (<20), Affymetrix probe set 11752670_a_at) was 3012.88 and the “REadj2, GBA” value (relative expression adjusted to detection limit (<20), Affymetrix probe set 11753440_x_at) was 139.49. The “REadj2, FADS1” value (relative expression adjusted to detection limit (<20), Affymetrix probe set 11755251_x_at) was 1908.34, the “REadj2, HSD17B14” value (relative expression adjusted to detection limit (<20), Affymetrix probe set 11757575_x_at) was 89.08 and the “REadj2, TM7SF2” value (relative expression adjusted to detection limit (<20), Affymetrix probe set 11762755_x_at) was 61.24.
